Test results taken from patent US7981903B2, “2-[2-{phenylamino}-1H-pyrrolo[2,3-D]pyrimidin-4-yl)amino] benzamide derivatives as IGF-1R inhibitors for the treatment of cancer” (GlaxoSmithKline LLC, priority 2007, dated 2011).

How the values were obtained:
Colo205 = assay: Inhibition of cell proliferation (CellTiter-Glo or InCell analyzer), Colo205; assay type: cell-based; settings: Homo sapiens, COLO 205, 72 h / 3 days, values given as IC50 category
Method in brief: In one

[1] = target: T1, NIH-3T3 cells overexpressing human IR (Homo sapiens, UniProt P06213); assay: IR cellular autophosphorylation (DELFIA); assay type: cell-based; settings: 2 h compound, insulin 3 ug/ml for 15 minutes, IC50 category
T1 construct: expressed in transfected cells; host or cells: NIH-3T3 (mouse fibroblasts)
Method in brief: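 Receptor autophosphorylation measured by DELFIA, capturing IGF-1R or IRβ and detecting with europium anti-pTyr, reported as percent of IGF-1- or insulin-stimulated signal. Compounds (30 uM to 1.5 nM) added 2 h before ligand, then 15 min stimulation (IGF-1 30 ng/ml or insulin 3 ug/ml).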

human IGF1R (hIGF1R) = target: T2, human IGF1R (hIGF1R) (Homo sapiens, UniProt P08069); assay: TR-FRET kinase assay of purified hIGF1R; assay type: biochemical; settings: activated hIGF1R 0.5 nM, 10 μM ATP, values given as pIC50 category, read-out: IGF-1R pIC50 (converted)
T2 construct: containing amino acid residues 957-1367 of human IGF1R; made in house; host or cells: Sf9 cells (baculovirus)

NCI-H929 = assay: Inhibition of cell proliferation (CellTiter-Glo or InCell analyzer), NCI-H929; assay type: cell-based; settings: Homo sapiens, 72 h / 3 days, values given as IC50 category
Method in brief: In one

T2 sequence (P08069 957-1367): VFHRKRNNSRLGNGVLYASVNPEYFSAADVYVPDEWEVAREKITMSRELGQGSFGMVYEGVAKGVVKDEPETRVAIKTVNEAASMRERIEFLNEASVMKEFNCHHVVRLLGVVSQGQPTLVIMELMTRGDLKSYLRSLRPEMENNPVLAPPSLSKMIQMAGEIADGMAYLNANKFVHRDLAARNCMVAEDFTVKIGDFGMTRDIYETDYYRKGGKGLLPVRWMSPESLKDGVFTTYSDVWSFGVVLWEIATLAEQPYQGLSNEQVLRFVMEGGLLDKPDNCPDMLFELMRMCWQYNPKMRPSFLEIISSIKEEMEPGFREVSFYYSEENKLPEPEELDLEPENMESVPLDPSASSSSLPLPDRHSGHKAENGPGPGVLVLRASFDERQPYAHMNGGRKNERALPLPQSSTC
T1 sequence (P06213 28-1382): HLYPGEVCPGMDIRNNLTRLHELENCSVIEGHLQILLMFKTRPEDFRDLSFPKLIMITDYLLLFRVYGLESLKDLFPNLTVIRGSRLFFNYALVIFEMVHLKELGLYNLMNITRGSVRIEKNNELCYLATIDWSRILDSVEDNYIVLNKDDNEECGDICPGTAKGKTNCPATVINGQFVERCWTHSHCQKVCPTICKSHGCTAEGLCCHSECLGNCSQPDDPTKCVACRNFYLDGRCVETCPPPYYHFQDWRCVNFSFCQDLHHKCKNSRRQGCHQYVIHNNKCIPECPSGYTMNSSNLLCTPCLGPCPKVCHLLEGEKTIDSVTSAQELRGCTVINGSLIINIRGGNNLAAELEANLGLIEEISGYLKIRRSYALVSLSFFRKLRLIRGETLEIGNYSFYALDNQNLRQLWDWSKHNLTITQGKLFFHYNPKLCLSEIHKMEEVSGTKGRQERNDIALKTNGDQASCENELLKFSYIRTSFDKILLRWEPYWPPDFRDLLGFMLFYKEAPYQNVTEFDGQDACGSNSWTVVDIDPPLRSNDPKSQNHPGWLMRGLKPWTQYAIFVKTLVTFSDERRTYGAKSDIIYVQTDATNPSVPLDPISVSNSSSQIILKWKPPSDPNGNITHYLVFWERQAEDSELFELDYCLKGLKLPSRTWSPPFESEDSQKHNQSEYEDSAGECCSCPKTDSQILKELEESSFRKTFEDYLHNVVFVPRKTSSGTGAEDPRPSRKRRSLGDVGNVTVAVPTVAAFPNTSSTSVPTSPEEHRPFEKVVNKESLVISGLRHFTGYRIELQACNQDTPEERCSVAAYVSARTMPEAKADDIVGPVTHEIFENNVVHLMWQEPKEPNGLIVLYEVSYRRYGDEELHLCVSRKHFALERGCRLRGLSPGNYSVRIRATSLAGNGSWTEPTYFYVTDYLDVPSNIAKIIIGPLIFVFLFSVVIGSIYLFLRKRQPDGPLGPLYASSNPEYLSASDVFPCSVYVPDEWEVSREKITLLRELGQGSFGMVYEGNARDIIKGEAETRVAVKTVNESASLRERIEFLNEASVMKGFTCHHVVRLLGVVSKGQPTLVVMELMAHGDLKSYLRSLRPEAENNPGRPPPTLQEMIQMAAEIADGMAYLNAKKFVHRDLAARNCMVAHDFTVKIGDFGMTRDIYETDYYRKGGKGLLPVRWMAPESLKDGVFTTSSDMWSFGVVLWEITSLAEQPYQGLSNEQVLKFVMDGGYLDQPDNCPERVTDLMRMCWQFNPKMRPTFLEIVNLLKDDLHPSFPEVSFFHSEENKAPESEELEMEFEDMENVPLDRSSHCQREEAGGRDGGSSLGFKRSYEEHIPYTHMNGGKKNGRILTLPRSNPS

| IC50 (Colo205) [nM] | IC50 [1] [nM] | IC50 (human IGF1R (hIGF1R)) [nM] | IC50 (NCI-H929) [nM] | SMILES |
| --- | --- | --- | --- | --- |
| 250 to 1000 | < 100 | 1.26 to 3.98 | < 250 | CNC(=O)c1c(F)cccc1Nc1nc(Nc2cc3c(cc2OC)C(C)(C)CN3C(=O)CN(C)C)nc2[nH]ccc12 [Example 127, 2-[(2-{[1-(N,N-dimethylglycyl)-3,3-dimethyl-5-(methyloxy)-2,3-dihydro-1H-indol-6-yl]amino}-1H-pyrrolo[2,3-d]pyrimidin-4-yl)amino]-6-fluoro-N-methylbenzamide] |
| 250 to 1000 | < 100 | 1.26 to 3.98 | < 250 | CCN(CC)CC(=O)N1CCc2cc(OC)c(Nc3nc(Nc4cccc(F)c4C(N)=O)c4cc[nH]c4n3)cc21 [Example 136, 2-[(2-{[1-(N,N-diethylglycyl)-5-(methyloxy)-2,3-dihydro-1H-indol-6-yl]amino}-1H-pyrrolo[2,3-d]pyrimidin-4-yl)amino]-6-fluorobenzamide] |
| 250 to 1000 | < 100 | 1.26 to 3.98 | < 250 | COc1cc2c(cc1Nc1nc(Nc3cccc(F)c3C(N)=O)c3cc[nH]c3n1)N(C(=O)CN1CCCC1)CC2 [Example 138, 2-fluoro-6-[(2-{[5-(methyloxy)-1-(1-pyrrolidinylacetyl)-2,3-dihydro-1H-indol-6-yl]amino}-1H-pyrrolo[2,3-d]pyrimidin-4-yl)amino]benzamide] |
| 250 to 1000 | 100 to 500 | 1.26 to 3.98 | < 250 | CNC(=O)c1c(F)cccc1Nc1nc(Nc2cc3c(cc2OC)CCN3C(=O)CN2CCCC2)nc2[nH]ccc12 [Example 139, 2-fluoro-N-methyl-6-[(2-{[5-(methyloxy)-1-(1-pyrrolidinylacetyl)-2,3-dihydro-1H-indol-6-yl]amino}-1H-pyrrolo[2,3-d]pyrimidin-4-yl)amino]benzamide] |
| 250 to 1000 | > 500 | 1.26 to 3.98 | 250 to 1000 | COc1cc2c(cc1Nc1nc(Nc3cccc(F)c3C(N)=O)c3cc[nH]c3n1)N(C(=O)CN)CC2 [Example 141, 2-fluoro-6-[(2-{[1-glycyl-5-(methyloxy)-2,3-dihydro-1H-indol-6-yl]amino}-1H-pyrrolo[2,3-d]pyrimidin-4-yl)amino]benzamide] |
| 250 to 1000 | 100 to 500 | 1.26 to 3.98 | 250 to 1000 | CNCC(=O)N1CCc2cc(OC)c(Nc3nc(Nc4cccc(F)c4C(N)=O)c4cc[nH]c4n3)cc21 [Example 142, 2-fluoro-6-[(2-{[1-(N-methylglycyl)-5-(methyloxy)-2,3-dihydro-1H-indol-6-yl]amino}-1H-pyrrolo[2,3-d]pyrimidin-4-yl)amino]benzamide] |
| > 1000 | > 500 | 1.26 to 3.98 | > 1000 | COc1cc2c(cc1Nc1nc(Nc3cc(F)cc(F)c3C(=O)NC(C)C)c3cc[nH]c3n1)N(C(=O)CN(C)C)CC2 [Example 153, 2-[(2-{[1-(N,N-dimethylglycyl)-5-(methyloxy)-2,3-dihydro-1H-indol-6-yl]amino}-1H-pyrrolo[2,3-d]pyrimidin-4-yl)amino]-4,6-difluoro-N-(1-methylethyl)benzamide] |
| > 1000 | > 500 | 1.26 to 3.98 | 250 to 1000 | COc1cc2c(cc1Nc1nc(Nc3cc(F)cc(F)c3C(=O)NCC(C)C)c3cc[nH]c3n1)N(C(=O)CN(C)C)CC2 [Example 154, 2-[(2-{[1-(N,N-dimethylglycyl)-5-(methyloxy)-2,3-dihydro-1H-indol-6-yl]amino}-1H-pyrrolo[2,3-d]pyrimidin-4-yl)amino]-4,6-difluoro-N-(2-methylpropyl)benzamide] |
| > 1000 | 100 to 500 | 1.26 to 3.98 | > 1000 | COc1cc2c(cc1Nc1nc(Nc3cc(F)cc(F)c3C(=O)NCc3ccc(F)cc3)c3cc[nH]c3n1)N(C(=O)CN(C)C)CC2 [Example 155, 2-[(2-{[1-(N,N-dimethylglycyl)-5-(methyloxy)-2,3-dihydro-1H-indol-6-yl]amino}-1H-pyrrolo[2,3-d]pyrimidin-4-yl)amino]-4,6-difluoro-N-[(4-fluorophenyl)methyl]benzamide] |
| > 1000 | 100 to 500 | 1.26 to 3.98 | 250 to 1000 | CCCNC(=O)c1c(F)cccc1Nc1nc(Nc2cc3c(cc2OC)CCN3C(=O)CN(C)C)nc2[nH]ccc12 [Example 156, 2-[(2-{[1-(N,N-dimethylglycyl)-5-(methyloxy)-2,3-dihydro-1H-indol-6-yl]amino}-1H-pyrrolo[2,3-d]pyrimidin-4-yl)amino]-6-fluoro-N-propylbenzamide] |
| > 1000 | 100 to 500 | 1.26 to 3.98 | 250 to 1000 | COc1cc2c(cc1Nc1nc(Nc3cccc(F)c3C(=O)NCC(C)C)c3cc[nH]c3n1)N(C(=O)CN(C)C)CC2 [Example 157, 2-[(2-{[1-(N,N-dimethylglycyl)-5-(methyloxy)-2,3-dihydro-1H-indol-6-yl]amino}-1H-pyrrolo[2,3-d]pyrimidin-4-yl)amino]-6-fluoro-N-(2-methylpropyl)benzamide] |
| 250 to 1000 | > 500 | 1.26 to 3.98 | 250 to 1000 | COc1cc2c(cc1Nc1nc(Nc3cccc(F)c3C(=O)NC(C)C)c3cc[nH]c3n1)N(C(=O)CN(C)C)CC2 [Example 158, 2-[(2-{[1-(N,N-dimethylglycyl)-5-(methyloxy)-2,3-dihydro-1H-indol-6-yl]amino}-1H-pyrrolo[2,3-d]pyrimidin-4-yl)amino]-6-fluoro-N-(1-methylethyl)benzamide] |
| < 250 | < 100 | 1.26 to 3.98 | < 250 | COc1cc2c(cc1Nc1nc(Nc3ccc(F)c(F)c3C(N)=O)c3cc[nH]c3n1)N(C(=O)CN(C)C)CCC2 [Example 162, 6-[(2-{[1-(N,N-dimethylglycyl)-6-(methyloxy)-1,2,3,4-tetrahydro-7-quinolinyl]amino}-1H-pyrrolo[2,3-d]pyrimidin-4-yl)amino]-2,3-difluorobenzamide] |
| 250 to 1000 | < 100 | 1.26 to 3.98 | < 250 | CNC(=O)c1c(Nc2nc(Nc3cc4c(cc3OC)CCCN4C(=O)CN(C)C)nc3[nH]ccc23)ccc(F)c1F [Example 163, 6-[(2-{[1-(N,N-dimethylglycyl)-6-(methyloxy)-1,2,3,4-tetrahydro-7-quinolinyl]amino}-1H-pyrrolo[2,3-d]pyrimidin-4-yl)amino]-2,3-difluoro-N-methylbenzamide] |
| 250 to 1000 | < 100 | 1.26 to 3.98 | < 250 | CCN(C)CC(=O)N1CCc2cc(OC)c(Nc3nc(Nc4cccc(F)c4C(N)=O)c4cc[nH]c4n3)cc21 [Example 166, 2-[(2-{[1-(N-ethyl-N-methylglycyl)-5-(methyloxy)-2,3-dihydro-1H-indol-6-yl]amino}-1H-pyrrolo[2,3-d]pyrimidin-4-yl)amino]-6-fluorobenzamide] |
| 250 to 1000 | 100 to 500 | 1.26 to 3.98 | < 250 | CCCN(C)CC(=O)N1CCc2cc(OC)c(Nc3nc(Nc4cccc(F)c4C(=O)NC)c4cc[nH]c4n3)cc21 [Example 167, 2-fluoro-N-methyl-6-[(2-{[5-(methyloxy)-1-(N-methyl-N-propylglycyl)-2,3-dihydro-1H-indol-6-yl]amino}-1H-pyrrolo[2,3-d]pyrimidin-4-yl)amino]benzamide] |
| 250 to 1000 | 100 to 500 | 1.26 to 3.98 | 250 to 1000 | CNC(=O)c1c(F)cc(Cl)cc1Nc1nc(Nc2cc3c(cc2OC)CCCN3C(=O)CN2CCCC2)nc2[nH]ccc12 [Example 174, 4-chloro-2-fluoro-N-methyl-6-[(2-{[6-(methyloxy)-1-(1-pyrrolidinylacetyl)-1,2,3,4-tetrahydro-7-quinolinyl]amino}-1H-pyrrolo[2,3-d]pyrimidin-4-yl)amino]benzamide] |
| > 1000 | 100 to 500 | 1.26 to 3.98 | 250 to 1000 | CCN(CCO)CC(=O)N1CCc2cc(OC)c(Nc3nc(Nc4cccc(F)c4C(N)=O)c4cc[nH]c4n3)cc21 [Example 177, 2-[(2-{[1-[N-ethyl-N-(2-hydroxyethyl)glycyl]-5-(methyloxy)-2,3-dihydro-1H-indol-6-yl]amino}-1H-pyrrolo[2,3-d]pyrimidin-4-yl)amino]-6-fluorobenzamide] |
| < 250 | > 500 | 1.26 to 3.98 | < 250 | COc1cc2c(cc1Nc1nc(Nc3cccc(F)c3C(N)=O)c3cc[nH]c3n1)CCN2C(=O)CN(C)C [Example 197, 2-[(2-{[1-(N,N-dimethylglycyl)-6-(methyloxy)-2,3-dihydro-1H-indol-5-yl]amino}-1H-pyrrolo[2,3-d]pyrimidin-4-yl)amino]-6-fluorobenzamide] |
| < 250 | > 500 | 1.26 to 3.98 | 250 to 1000 | CNC(=O)c1c(F)cccc1Nc1nc(Nc2cc3c(cc2OC)N(C(=O)CN(C)C)CC3)nc2[nH]ccc12 [Example 198, 2-[(2-{[1-(N,N-dimethylglycyl)-6-(methyloxy)-2,3-dihydro-1H-indol-5-yl]amino}-1H-pyrrolo[2,3-d]pyrimidin-4-yl)amino]-6-fluoro-N-methylbenzamide] |
| < 250 | < 100 | 1.26 to 3.98 | < 250 | COc1cc(N2CCN(C(C)C)CC2)ccc1Nc1nc(Nc2cccc3c2C(=O)NC3)c2cc[nH]c2n1 [Example 199, 7-[(2-{[4-[4-(1-methylethyl)-1-piperazinyl]-2-(methyloxy)phenyl]amino}-1H-pyrrolo[2,3-d]pyrimidin-4-yl)amino]-2,3-dihydro-1H-isoindol-1-one] |
